Legend:
Format in all cases: in vivo
[1] = tested on: Brown Dog Ticks, Rhipicephalus sanguineus
Description: The following protocol was employed to test compounds of this invention for toxicity (mortality) against ticks. There were 5 replicates of 5 dog ticks for each treatment. […] Filter paper strips were laid on a sheet of aluminum foil and enough of each of the test sample was applied to thoroughly saturate the paper. The paper was then rolled and placed inside a glass shell vial as to line the sides of the vial. A small paper disc, also saturated with the test sample, was then placed at the bottom of the vial. Brown Dog Ticks, Rhipicephalus sanguineus, were then introduced into the vials which were covered with aluminum foil, the inside of which was painted with some of the test sample. The ticks remained in the vials, constantly exposed to the test samples, for the duration of the test. A small hole was poked through the foil for ventilation. Each control replicate was subjected to the same procedures outlined above, except that they were not treated. The controls were placed in the same area as the test replicates for the duration of the test. Mortality observations were made at 24 hours. Ticks were classified as alive (able to move normally), moribund (those classified as moribund will show some movement, but will not be able to crawl in a coordinated manner, or will be unable to right themselves if placed on their backs), or dead (no movement after physical stimuli). All dead ticks were confirmed by probing or agitation to make sure that they are unable to move; any that show movement visible to the naked eye were recorded as moribund. At 24 hours the tick mortality was 0% for the control, 100% for γ-dodecalactone, 100% for methyl apritone and 76% for methyl dihydrojasmonate.

stable flies = test: Stable fly probing on treated warmed blood-filled membranes; details: for Probes at 7% test compound: 7% in isopropyl alcohol on membrane; for Probes at 7% test compound / Probes at 15% test compound: twenty minutes, percent of control probes taken as 100%; for Probes at 15% test compound: 15% in isopropyl alcohol on membrane
Method: Five replicates of 100 mixed-sex stable flies each were placed in screened cages. The cages were placed in such a way that the stable flies had access to five warmed, blood-filled membrane walls. The membranes were treated with methyl dihydrojasmonate, gamma-dodecalactone, methyl apritone, or DEET® all at 7% and at 15% in isopropyl alcohol, or isopropyl alcohol as a control. There were five replicates tested with a positional rotation of the repellent at each replicate. Fresh batches of stable flies were used for each replicate. Thus each test sample was tested on each of the five wells, which allowed any positional bias to be eliminated. The number of stable flies probing each well was recorded at two minute intervals for twenty minutes. The total number of probes on each well were tallied at the end of the twenty minute observation period and the average percentage repellency was calculated for each compound. An analysis of variance was conducted to compare the average number of probes on each treatment membrane. The number of probes for the control was taken as the 100% baseline and the percentage for the test compounds is the percent for the number of probes for the test compound compared to the number of control probes.

Brown Dog Ticks = test: Second repellent assay against Brown Dog Ticks; details: 7% in isopropyl alcohol
Method: Also, a second repellent assay was used to evaluate six test samples against Brown Dog Ticks. Five replicates of five ticks were given the opportunity to quest onto a vertical strip of untreated filter paper and then allowed to move upward toward a second vertical strip of filter paper treated with one of the six candidate repellents or DEET®. In the control situation, the second strip was treated with isopropanol. They were then observed for directional or behavioral changes caused in response to contact with the repellent. Ticks were recorded as either repelled or not repelled. Compounds were diluted in isopropyl alcohol. The percentages of ticks repelled are shown below in Table 6.

sand flies P. papatasi = test: Sand fly bite test on treated human skin with K&D module; details: for percent biting, Treatment level 5%: 5% compound in isopropyl alcohol on human skin; for percent biting, Treatment level 5% / percent biting, Treatment level-10%: five minute exposure, percent of control biting taken as 100%; for percent biting, Treatment level-10%: 10% compound in isopropyl alcohol on human skin; for sand flies repelled: at 5%
Method: Control against sand flies was determined by the following protocol as generally described in J. Med. Entomol. 43 (6), 1248-1252 (2006). Volunteers wearing short pants were seated. Using a skin-marking template and a washable-ink marker, skin areas represented by 3- by 4-cm floor opening of six cells of a K&D module were outlined on the outer, top and inner thigh position of each leg of the volunteers. The six treated cell rectangles each represented a random block, and each volunteer had three blocks on each of two thighs. All treatments against the sand flies P. papatasi, were pipetted onto a 4- by 5-cm rectangular area (so the area of skin covered by a treatment exceeded the template marks by 0.5 cm in every direction) of the subjects' skin with 55 ul of isopropyl alcohol/treatment containing 10% or 5% compound/ul isopropyl alcohol. Treating a slightly larger area ensured that the areas beneath each K&D module contained only treated skin. Skin treated with isopropyl alcohol alone served as control. In all tests adjacent cells of the K&D module were supplied with ten sand flies. The sand fly charged K&D module was positioned over the treated skin areas and the trap doors of the K&D module above the areas were opened. After a five minute skin exposure the trap doors were closed. The number of sand fly bites was recorded for each cell. The percent biting is the percent compared to the biting for the control which was taken as 100%.

German cockroaches = test: German cockroach repellency, choice of food stations in arena; details: 50% in acetone; at 4 hours
Method: The efficacy of compounds of this invention to control or repel German cockroaches was illustrated using the following protocol. One food pellet each was placed on a paper square (station) treated with one of the repellent materials. Materials were diluted to 50% in acetone and a straight acetone station was also used. Both stations were placed on the same side of the arena. Cockroaches were starved for 2 days and then released into the arena. They were given a choice to feed on either food pellet. A control arena with an acetone treated station and an untreated station was also used. The distribution of cockroaches within the arena was recorded at 30 minute intervals over 4 hours. Repellency at 4 hours was calculated by the number of cockroaches on the untreated station vs. the total number of cockroaches on the stations.

house flies = test: House fly repellency on treated filter paper food trays in cages; details: over 6 hours
Method: The bottom of each cage was lined with brown craft paper and divided into 4 equal quadrants. Each quadrant housed a makeshift filter paper food tray. Two of the four filter papers were treated with repellent and two treated with isopropanol. Control cages contained filter papers that were treated with 4 filter papers of isopropanol only. The number of flies resting on filter paper per quadrant was recorded every 30 minutes for a total of 6 hours. Cages were rotated to eliminate positional bias. […] Each of the test samples were diluted in isopropyl alcohol.

Black Widow spiders = test: Black Widow spider choice test in half-treated tube shelters; details: 5% in isopropanol; location after 24 hours
Method: Control against Black Widow spiders was determined using the following protocol. One test container containing two card stock tube shelters, one half treated with a test sample and the other half treated with isopropanol was prepared. A spider was introduced in the center of the tube. The spider was then given a choice to move to one end of the shelters. The following day, its location is recorded and compared to the results from a shelter containing untreated half-shelters.
On the day of the test one of the two shelters was sprayed with the test sample solution using a 2 oz pump spray bottle. Only the surfaces that the spider will most likely contact were treated. Therefore, only the inside of one of the shelter tubes, including the end disc (spiders will not be able to access the outside part of the shelter) were sprayed. The total amount of product was weighed and recorded. The treated surface was allowed to dry for a minimum of ½ hour, or until solvent could not be detected by smell. At this time the shelter tubes were assembled.
Card stock paper tube shelters were constructed from 2 half-letter sized sheets (5½″×8½″) of paper, rolled and taped together to form a short tube. One end of each was covered with a circle of card stock paper, while the other end was later taped to the open end of the other half sheet, forming one long tube. […] The solvent-treated half was labeled with a “C” on the inner and outer walls with a pencil or a pen with solvent resistant ink. Prior to forming the final tube shelter, a semi-circular hole was cut into one of the margins of each sheet such that, once the two tubes are taped together, the holes correspond to the top and at the junction of the tubes for introduction of the spiders.
Twenty-five arenas were prepared in this manner for each test sample. There were five replicates of five spiders. Twenty-five additional control arenas were also prepared. They were prepared the same way, except that areas to be sprayed were sprayed with isopropanol only.
Replicates of five spiders were selected for each test formulation and for the control. The specimens were visually examined for overall physical condition. […] The spiders were transferred directly into the holding vials using flexible forceps or with a little coaxing with an artist brush. Because of their cannibalistic tendencies, each vial contained only one spider. There they were held until the time for testing.
At the test start the spiders were placed directly in the middle, through the opening at the top of the shelter tube, and the opening covered, with only one spider per arena. […] They were left alone for 24 hours, after which time their location within the arena was recorded. Spiders present inside the shelter treated with the test repellent were considered tolerant.

[2] = tested on: Brown Dog Ticks, Rhipicephalus sanguineus; test: Brown Dog tick repellency on vertical filter paper strips
Method: Control against Brown Dog ticks was determined in the following protocol. Strips of filter paper, 1″ by 3″, were placed on a sheet of aluminum foil treated with 1 ml each of the test samples and allowed to dry. The end of each treated strip was stapled to an untreated filter paper strip of the same dimensions. The stapled strips were suspended in a vertical position above a tray, with the treated half attached to a horizontal glass rod by a metal clip. The untreated half was lowered when the strip is vertically positioned. Brown Dog Ticks, Rhipicephalus sanguineus, mixed sexes, were purchased from a supplier. Five replicates of five ticks for each treatment regimen plus five additional replicates for the control were employed. Ticks shipped to the test site were given at least one day to acclimate to “shipping stress” before they are used for testing. Those tick specimens which appeared sluggish or moribund were not used. Suitable ticks were removed from their containers and allowed to quest on the free end of the test strip. Once present on the strip they were watched as they crawled up the strip until they contacted the treated paper. If the tick, once in contact with the treated zone, either turned around, stopped without proceeding further, or dropped off, the tick is classified as repelled. If it continued to crawl onto the treated strip, even after it stopped briefly, that tick was classified as not repelled. A maximum observation time of 1 minute per replicate was allowed for ticks to respond after reaching the treated area, but during the test, if more time was needed, the maximum observation time may have been adjusted at the discretion of the study coordinator. At the end of the observation time, the number of ticks repelled was recorded. Tick behavior was recorded when applicable, such as whether increased number of affected or repelled ticks occurred in successive replicates over time. After the completion of each treatment parameter, the testing chamber was ventilated for five minutes by turning on the exhaust fan and opening the door leading into the chamber. Ticks were used only once. Average number of ticks displaying each behavior category were calculated and compared to the control replicates.

[3] = tested on: brown marmorated stink bugs (BMSB); test: Brown marmorated stink bug repellency, treated vs. untreated filter paper arena
Method: The two semi-circle filter papers were aligned together to completely cover the bottom of the test arena. Control arenas were also set up in a similar fashion except both were treated with acetone. Five replicates of 5 BMSB were then introduced into both the treated and control arenas. By releasing them in the center of the arena, the BMSB were presented with a choice of treated vs. untreated substrate (or untreated vs. untreated in the control arenas). The repellency of the BMSB was recorded at 24 hours post-treatment.

Pharaoh ants = test: Pharaoh ant behaviour at treated-untreated interface on poster board; details: 50% in acetone; 5 minutes after release
Method: Pharaoh ants were tested using the following protocol. The side of a 17″×23″ rectangular sheet of poster board was sprayed with the test sample or acetone, except for a region within a 6″ circle. The treated poster board was allowed to dry. Five worker ants were placed in the center of the 6″ untreated circle and allowed to wander outside the circle onto the treated surface. The behavior of the ants at the treated-untreated interface was recorded for 5 minutes after release. Test compounds were diluted in acetone.

Compound: CCCCCC1CC(C)=CC(O)C1 (stereo not shown) [3-Methyl-5-Pentyl-2-cyclohexenol, 3-methyl-5-pentyl-2-cyclohexenol]
- morbidity at 24 hr ([1]; 10%, constant exposure 24 hours): 100%
- 24 hr mortality (%) ([1]; in vivo): 12%

Compound: CCN(CC)C(=O)c1cccc(C)c1 [DEET ®, N,N-Diethyl-m-toluamide, reference compound]
- Probes at 7% test compound (stable flies): 45.9%
- Probes at 15% test compound (stable flies): 16.2%
- Mean % repelled (Brown Dog Ticks): 96%

Compound: CCCCCC1C(O)CCC1CC(=O)OC (stereo not shown) [Methyl dihydrojasmolate]
- percent biting, Treatment level 5% (sand flies P. papatasi): 0%
- percent biting, Treatment level-10% (sand flies P. papatasi): 0%
- sand flies repelled (sand flies P. papatasi): 100%

Compound: CCCCCC1C(=O)CCC1CC(=O)OCC=C(C)C (stereo not shown) [Prenyl dihydrojasmonate]
- % Repellency 4 hr (German cockroaches): 87.5%

Compound: CCCCCCCCCC1CCCC(=O)O1 (stereo not shown) [delta Tetradecalactone]
- Overall % Repellency (house flies; 5% in isopropyl alcohol): 76%

Compound: CCCCCCCCCCCC1CCC(=O)O1 (stereo not shown) [gamma Pentadecalactone]
- Overall % Repellency (house flies; 7.5% in isopropyl alcohol): 87%
- % Repellency (Black Widow spiders): 75.0%

Compound: CCCCCCCCCC1CCC(=O)O1 (stereo not shown) [gamma Tridecalactone, gamma-tridecalactone]
- Overall % Repellency (house flies; 5% in isopropyl alcohol): 80%
- Overall % Repellency (house flies; 7.5% in isopropyl alcohol): 94%
- % Repellency (Black Widow spiders): 75.0%
- Mean % repelled ([2]; 7.5% in isopropyl alcohol): 100%
- % Repellency at 24 hours ([3]; 5% in isopropyl alcohol): 70%

Compound: CCCCCCCCC1CCC(=O)O1 (stereo not shown) [gamma-Dodecalactone, gamma-dodecalactone]
- 24 hr mortality (%) ([1]; in vivo): 100%
- tick mortality at 24 hours ([1]; in vivo): 100%
- % crossed without stopping (Pharaoh ants): 82%
- % slowed, but crossed (Pharaoh ants): 8%
- % stopped at interface (Pharaoh ants): 10%
- Probes at 7% test compound (stable flies): 6.2%
- Probes at 15% test compound (stable flies): 3.6%
- repellency compared with DEET (stable flies; at the same concentrations (7% and 15%)): repelled better than DEET®
- Overall % Repellency (house flies; 7.5% in isopropyl alcohol): 100%
- % Repellency 4 hr (German cockroaches): 96.6%
- Mean % repelled ([2]; Neat): 100%
- ticks repelled ([2]; concentration not given): 100%
- % Repellency at 24 hours ([3]; 10% in isopropyl alcohol): 100%

Compound: Farnesyl cyclopentanone
- % Repellency 4 hr (German cockroaches): 100%

Compound: Methyl apritol
- percent biting, Treatment level 5% (sand flies P. papatasi): 12.5%
- percent biting, Treatment level-10% (sand flies P. papatasi): 0%
- sand flies repelled (sand flies P. papatasi): 87.5%

— patent US10785978B2, “Control and repellency of biting flies, house flies, ticks, ants, fleas, biting midges, cockroaches, spiders and stink bugs” (priority 2012, dated 2020)
